Where two headings read alike, the source gives them in different places.
Assays:
[1] = test system: Key Grass and Sedge Weeds as well as Grass Crops; test: Post-emergent Test II herbicidal activity (Table 6); format: in vivo; details: post-emergence, 336 h; for pest or weed control at 70 g/ha: 70 g ai/ha; for pest or weed control at 140 g/ha: 140 g ai/ha
In short: (§1)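 Compounds, dissolved in 97:3 acetone/DMSO and diluted into an aqueous carrier containing crop oil concentrate and Triton X-155, are applied over the top of young plants at 187 L/ha. Injury is scored visually at 14 d, 0% meaning no effect and 100% complete kill.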

[2] = test system: Key Broadleaf Weed and Crop Species; test: Post-emergent Test II herbicidal activity (Table 5); format: in vivo; details: post-emergence, 336 h, 14 days after application; for pest or weed control at 70 g/ha: application rate 70 g ai/ha; for pest or weed control at 140 g/ha: application rate 140 g ai/ha
In short: as §1

[3] = CYPES: yellow nutsedge (Cyperus esculentus), read-out: Visual Growth Reduction (%) 14 Days After Application, CYPES
[4] = DIGSA: crabgrass (Digitaria sanguinalis), read-out: Visual Growth Reduction (%) 14 Days After Application, DIGSA
[5] = ECHCG: barnyardgrass (Echinochloa crus-galli), read-out: Visual Growth Reduction (%) 14 Days After Application, ECHCG
[6] = ORYSA: rice (Oryza sativa), crop, read-out: Visual Growth Reduction (%) 14 Days After Application, ORYSA
[7] = SETFA: giant foxtail (Setaria faberi), read-out: Visual Growth Reduction (%) 14 Days After Application, SETFA
[8] = SORVU: grain sorghum (Sorghum vulgare), read-out: Visual Growth Reduction (%) 14 Days After Application, SORVU
[9] = TRZSS (wheat, Triticum aestivum), crop, read-out: Visual Growth Reduction (%) 14 Days After Application, TRZSS
[10] = ZEAMX: maize, corn (Zea mays), crop, read-out: Visual Growth Reduction (%) 14 Days After Application, ZEAMX
[11] = ABUTH: velvetleaf (Abutilon theophrasti), read-out: Visual Growth Reduction (%) 14 Days After Application, ABUTH
[12] = AMARE: redroot pigweed (Amaranthus retroflexus), read-out: Visual Growth Reduction (%) 14 Days After Application, AMARE
[13] = BRSNN: oilseed-rape, canola (Brassica napus), read-out: Visual Growth Reduction (%) 14 Days After Application, BRSNN
[14] = CHEAL: lambsquarters (Chenopodium album), read-out: Visual Growth Reduction (%) 14 Days After Application, CHEAL
[15] = EPHHL: wild poinsettia (Euphorbia heterophylla), read-out: Visual Growth Reduction (%) 14 Days After Application, EPHHL
[16] = HELAN: sunflower (Helianthus annuus), read-out: Visual Growth Reduction (%) 14 Days After Application, HELAN
[17] = VIOTR: wild pansy (Viola tricolor), read-out: Visual Growth Reduction (%) 14 Days After Application, VIOTR

COC(=O)c1nc(-c2ccc(OC(F)F)cc2)nc(N)c1OC [Compound 106, methyl 6-amino-2-(4-(difluoromethoxy)phenyl)-5-methoxypyrimidine-4-carboxylate]
0 to 29%: pest or weed control at 70 g/ha [1, 3] | pest or weed control at 140 g/ha [1, 3] | pest or weed control at 70 g/ha [1, 4] | pest or weed control at 140 g/ha [1, 4] | pest or weed control at 70 g/ha [1, 5] | pest or weed control at 140 g/ha [1, 5] | pest or weed control at 70 g/ha [1, 6] | pest or weed control at 140 g/ha [1, 6] | pest or weed control at 70 g/ha [1, 7] | pest or weed control at 140 g/ha [1, 7] | pest or weed control at 70 g/ha [1, 8] | pest or weed control at 140 g/ha [1, 8] | pest or weed control at 70 g/ha [1, 9] | pest or weed control at 140 g/ha [1, 9] | pest or weed control at 70 g/ha [1, 10] | pest or weed control at 140 g/ha [1, 10] | pest or weed control at 70 g/ha [2, 11] | pest or weed control at 140 g/ha [2, 11] | pest or weed control at 70 g/ha [2, 12] | pest or weed control at 140 g/ha [2, 12] | pest or weed control at 70 g/ha [2, 13] | pest or weed control at 140 g/ha [2, 13] | pest or weed control at 70 g/ha [2, 14] | pest or weed control at 140 g/ha [2, 14] | pest or weed control at 70 g/ha [2, 15] | pest or weed control at 140 g/ha [2, 15] | pest or weed control at 70 g/ha [2, 16] | pest or weed control at 140 g/ha [2, 16] | pest or weed control at 70 g/ha [2, 17] | pest or weed control at 140 g/ha [2, 17]
183 to 184 °C: melting point

Nc1c(F)c(-c2ccc(C(F)(F)F)c(F)c2F)nc(C(=O)O)c1Cl [Compound 167]
0 to 29%: pest or weed control at 70 g/ha [1, 6] | pest or weed control at 140 g/ha [1, 6]
69 to 70 °C: melting point
85 to 94%: pest or weed control at 70 g/ha [1, 3] | pest or weed control at 70 g/ha [1, 7] | pest or weed control at 70 g/ha [1, 8] | pest or weed control at 140 g/ha [1, 8] | pest or weed control at 140 g/ha [1, 10] | pest or weed control at 70 g/ha [2, 11] | pest or weed control at 140 g/ha [2, 17]
95 to 100%: pest or weed control at 140 g/ha [1, 3] | pest or weed control at 70 g/ha [1, 5] | pest or weed control at 140 g/ha [1, 5] | pest or weed control at 140 g/ha [1, 7] | pest or weed control at 140 g/ha [2, 11] | pest or weed control at 70 g/ha [2, 12] | pest or weed control at 140 g/ha [2, 12] | pest or weed control at 70 g/ha [2, 13] | pest or weed control at 140 g/ha [2, 13] | pest or weed control at 70 g/ha [2, 14] | pest or weed control at 140 g/ha [2, 14] | pest or weed control at 70 g/ha [2, 15] | pest or weed control at 140 g/ha [2, 15] | pest or weed control at 70 g/ha [2, 16] | pest or weed control at 140 g/ha [2, 16] | pest or weed control at 70 g/ha [2, 17]
60 to 74%: pest or weed control at 70 g/ha [1, 9] | pest or weed control at 140 g/ha [1, 9]
75 to 84%: pest or weed control at 70 g/ha [1, 4] | pest or weed control at 140 g/ha [1, 4] | pest or weed control at 70 g/ha [1, 10]

Nc1cc(-c2ccc(C(F)(F)F)c(F)c2F)nc(C(=O)O)c1Cl [Compound 172, 4-amino-3-chloro-6-(2,3-difluoro-4-(trifluoromethyl)phenyl)picolinic acid]
85 to 94%: pest or weed control at 70 g/ha [2, 14] | pest or weed control at 140 g/ha [2, 14]
161 °C: melting point
45 to 59%: pest or weed control at 70 g/ha [1, 9] | pest or weed control at 70 g/ha [2, 17]
95 to 100%: pest or weed control at 70 g/ha [1, 3] | pest or weed control at 140 g/ha [1, 3] | pest or weed control at 70 g/ha [1, 5] | pest or weed control at 140 g/ha [1, 5] | pest or weed control at 70 g/ha [1, 7] | pest or weed control at 140 g/ha [1, 7] | pest or weed control at 70 g/ha [1, 10] | pest or weed control at 140 g/ha [1, 10] | pest or weed control at 70 g/ha [2, 11] | pest or weed control at 140 g/ha [2, 11] | pest or weed control at 70 g/ha [2, 12] | pest or weed control at 140 g/ha [2, 12] | pest or weed control at 70 g/ha [2, 15] | pest or weed control at 140 g/ha [2, 15] | pest or weed control at 70 g/ha [2, 16] | pest or weed control at 140 g/ha [2, 16]
75 to 84%: pest or weed control at 70 g/ha [1, 4] | pest or weed control at 140 g/ha [1, 4] | pest or weed control at 70 g/ha [1, 8] | pest or weed control at 140 g/ha [1, 8] | pest or weed control at 70 g/ha [2, 13] | pest or weed control at 140 g/ha [2, 13]
0 to 29%: pest or weed control at 70 g/ha [1, 6] | pest or weed control at 140 g/ha [1, 6]
60 to 74%: pest or weed control at 140 g/ha [1, 9] | pest or weed control at 140 g/ha [2, 17]

— patent US9113629B2, “4-amino-6-(4-substituted-phenyl)-picolinates and 6-amino-2-(4-substituted-phenyl)-pyrimidine-4-carboxylates and their use as herbicides” (DOW AGROSCIENCES LLC, priority 2013, dated 2015)
